Experimental data as given in patent US8017611B2, “Pyridine and pyrazine derivatives -083” (AstraZeneca AB, priority 2007, dated 2011).

Each molecule was assayed against T1, recombinant Axl tyrosine kinase (Homo sapiens, UniProt P30530) (assay: In vitro Axl kinase assay (AlphaScreen), Test (a)). Conditions: 1 μM; mean calculated from a larger number of replicates than the first value.
T1 construct: encompassing amino acids 473 to 894 of Axl; GST (N); made in house; host or cells: SF126 insect cells
T1 sequence (P30530 473-894): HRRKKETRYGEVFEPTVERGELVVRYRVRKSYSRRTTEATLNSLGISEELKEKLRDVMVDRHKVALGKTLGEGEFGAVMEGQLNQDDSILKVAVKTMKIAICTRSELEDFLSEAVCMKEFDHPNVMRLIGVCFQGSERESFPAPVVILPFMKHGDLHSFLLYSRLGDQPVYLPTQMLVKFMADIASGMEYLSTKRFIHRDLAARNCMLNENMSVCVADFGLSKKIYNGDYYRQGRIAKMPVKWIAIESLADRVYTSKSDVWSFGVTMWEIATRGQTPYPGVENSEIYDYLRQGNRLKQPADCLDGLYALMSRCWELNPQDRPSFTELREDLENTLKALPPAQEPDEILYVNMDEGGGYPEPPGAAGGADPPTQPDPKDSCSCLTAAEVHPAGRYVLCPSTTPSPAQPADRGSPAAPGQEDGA
Format: biochemical
Description: Test compounds were prepared as 10 mM stock solutions in dimethylsulphoxide (DMSO) and diluted in DMSO as required. Aliquots (120 nl) of compound dilutions were filled into the wells of a Greiner 384-well low volume (LV) white polystyrene plate (Greiner Bio-one) using acoustic dispensing (Labcyte Echo 550). A 10 μl mixture of recombinant purified Axl enzyme, biotinylated peptide substrate (Biotin poly-GAT; CisBio, Catalogue No. 61GATBLB), 0.2 μM adenosine triphosphate (ATP) and a buffer solution [comprising 20 mM Tris-HCl pH 7.5 buffer, 0.01% v/v Tween, 5 mM dithiothreitol (DTT) and 10 mM manganese chloride] was incubated with the compounds at room temperature for 20 minutes.
Control wells that produced a minimum signal corresponding to 100% inhibited enzyme were created by adding 10 μM of Staurosporine.
The percentage kinase inhibition value is the percentage of Axl tyrosine kinase activity inhibited by the test compound at a concentration of 1 μM.

SMILES | % Axl tyrosine kinase inhibition at 1 μM concentration (second value, †)
Nc1ncc(-c2ccc(CN3CCOCC3)cc2)cc1-c1nc2cnccc2o1 [Example 8A.18] | 99.0%
Nc1ncc(-c2ccc(N3CCNCC3)nc2)nc1-c1nc2ccccc2o1 [Example 20.3] | 98.7%

Same assay, conditions: Test (a); read-out: IC50 versus Axl tyrosine kinase

SMILES | IC50
COCc1nn(C2CCN(C(=O)[C@H](C)O)CC2)cc1-c1cnc(N)c(-c2nc3ccccc3o2)c1 [Example 67.1] | ~700 pM

Same assay, conditions: test compound at 1 μM; first value quoted

SMILES | % Axl tyrosine kinase inhibition at 1 μM concentration
CN(C)CCn1cc(-c2cnc(N)c(-c3nc4ccccc4o3)c2)cn1 [Example 27.5] | 98.4%
CN1CCC(Cn2cc(-c3cnc(N)c(-c4nc5ccccc5o4)c3)cn2)C1 (stereo not shown) [Example 41.15] | 98.4%
COc1cc(-c2cnc(N)c(-c3nc4ncccc4o3)c2)ccc1OCCC1CCNCC1 [Example 43C.31] | 99.3%
CCOc1nn(C2CCNCC2)cc1-c1cnc(N)c(-c2nc3ccccc3o2)c1 [Example 25.3] | 100.0%
COCc1nn(C2CCN(C)CC2)cc1-c1cnc(N)c(-c2nc3c(F)cccc3o2)c1 [Example 41.34] | 100.0%
Nc1ncc(-c2cccc(N3CCCCC3)c2)cc1-c1nc2cnccc2o1 [Example 8A.21] | 85.8%
CN(C(=O)c1ccc(-c2cnc(N)c(-c3nc4cccnc4o3)c2)cc1)C1CCNCC1 [Example 45A.96] | 99.1%
Nc1ncc(-c2cnn(CCN3CCC3)c2)cc1-c1nc2ccccc2o1 [Example 31.10] | 94.3%
Nc1ncc(-c2ccc(OCCCN3CCS(=O)(=O)CC3)cc2)cc1-c1nc2ncccc2o1 [Example 43B.16] | 95.3%
Nc1ncc(-c2ccc(C(=O)N3CCCCC3CN3CCOCC3)cc2)cc1-c1nc2cccnc2o1 (stereo not shown) [Example 45A.21] | 96.4%
Nc1ncc(-c2cccc(C(=O)NC3CC3)c2)cc1-c1nc2ccncc2o1 [Example 11A.7] | 80.3%
CN1CCN(CCCNC(=O)c2ccc(-c3cnc(N)c(-c4nc5cccnc5o4)c3)cc2)CC1 [Example 45A.58] | 97.0%
CN1CCN(C(=O)c2cccc(-c3cnc(N)c(-c4nc5ncccc5o4)c3)c2)CC1 [Example 10A.8] | 57.4%
COc1cc(-c2cnc(N)c(-c3nc4ncccc4o3)c2)ccc1OC1CCNC1 (stereo not shown) [Example 43C.23] | 99.3%
N#Cc1nn(C2CCNCC2)cc1-c1cnc(N)c(-c2nc3ccccc3o2)c1 [Example 62.1] | 100.0%
Nc1ncc(-c2cccc(N3CCOCC3)c2)cc1-c1nc2ccncc2o1 [Example 11A.12] | 93.7%
Nc1ncc(-c2ccc(C(=O)N3CCN(Cc4ccccn4)CC3)cc2)cc1-c1nc2ncccc2o1 [Example 45B.4] | 99.6%
COc1cc(-c2cnc(N)c(-c3nc4ncccc4o3)c2)ccc1OCCCN1CCOCC1 [Example 43C.17] | 93.5%
Cc1nn(C2CCN(C)CC2)cc1-c1cnc(N)c(-c2nc3ncccc3o2)c1 [Example 41.22] | 100.0%
Nc1ncc(-c2cnn(C3CCN(C(=O)CO)CC3)c2)cc1-c1nc2ncccc2o1 [Example 57.2] | 99.4%
Cc1c(-c2cnc(N)c(-c3nc4ccccc4o3)c2)cnn1C1CCN(C)CC1 [Example 41.18] | 100.0%
COc1cccc2nc(-c3cc(-c4cn(C5CCNCC5)nc4C)cnc3N)oc12 [Example 62.15] | 100.0%
CC(O)c1nn(C2CCN(C)CC2)cc1-c1cnc(N)c(-c2nc3ccccc3o2)c1 (stereo not shown) [Example 41.29] | 99.9%

SMILES | % Axl tyrosine kinase inhibition at 1 μM concentration
CN1CCCCC1C1CCCN1C(=O)c1ccc(-c2cnc(N)c(-c3nc4cccnc4o3)c2)cc1 (stereo not shown) [Example 45A.15] | 99.7%
Nc1ncc(-c2ccc(C(=O)N3CCCNCC3)cc2)cc1-c1nc2cccnc2o1 [Example 45A.82] | 98.4%
CN(C)S(=O)(=O)c1ccc(-c2cnc(N)c(-c3nc4ccccc4o3)n2)cc1 [Example 20.12] | 92.7%
CN(C)C(=O)c1nn(C2CCNCC2)cc1-c1cnc(N)c(-c2nc3ccccc3o2)c1 [Example 62.2] | 98.8%
Nc1ncc(-c2ccc(OC3CCNCC3)cc2)cc1-c1nc2ncccc2o1 [Example 43B.33] | 98.1%
Nc1ncc(-c2ccc(C(=O)N3CCCCC3CN3CCCC3)cc2)cc1-c1nc2cccnc2o1 (stereo not shown) [Example 45A.23] | 99.8%
COCc1nn(C2CCN(C(=O)[C@H](C)O)CC2)cc1-c1cnc(N)c(-c2nc3ccccc3o2)c1 [Example 67.1] | 100.0%
Nc1ncc(-c2ccc(C(=O)N3CCCC4(CCNCC4)C3)cc2)cc1-c1nc2cccnc2o1 [Example 45A.91] | 96.3%
CN(C)C1CCN(C(=O)c2ccc(-c3cnc(N)c(-c4nc5cccnc5o4)c3)cc2)CC1 [Example 45A.1] | 92.9%
Nc1ncc(-c2ccc(CN3CCOCC3)cc2)cc1-c1nc2cnccc2o1 [Example 8A.18] | 98.9%
CN1CCC(NC(=O)c2ccc(-c3cnc(N)c(-c4nc5cccnc5o4)c3)cc2)CC1 [Example 45A.69] | 96.7%
Nc1ncc(-c2ccc(OC3CCCNC3)cc2)cc1-c1nc2ncccc2o1 (stereo not shown) [Example 43B.30] | 98.9%
Nc1ncc(-c2ccc(C(=O)NCCN3CCCCC3)cc2)cc1-c1nc2cccnc2o1 [Example 45A.56] | 98.9%
Nc1ncc(-c2ccc(C(=O)N3CCC(N)CC3)cc2)cc1-c1nc2cccnc2o1 [Example 45A.107] | 95.0%
NC(=O)CN1CCC(n2cc(-c3cnc(N)c(-c4nc5ccccc5o4)c3)cn2)CC1 [Example 53.6] | 100.0%
Nc1ncc(-c2ccc(OCCCN3CCOCC3)cc2)cc1-c1nc2ncccc2o1 [Example 43B.19] | 95.8%
Nc1ncc(-c2cnn(CCCN3CCCC3)c2)cc1-c1nc2ccccc2o1 [Example 27.2] | 99.9%
Nc1ncc(-c2cccc(N3CCCCC3)c2)cc1-c1nc2ccncc2o1 [Example 11A.6] | 90.0%
CC(C)N1CCC[C@H]1CNC(=O)c1ccc(-c2cnc(N)c(-c3nc4cccnc4o3)c2)cc1 [Example 45A.43] | 99.9%
Nc1ncc(-c2cnn(CC3CNC3)c2)cc1-c1nc2ccccc2o1 [Example 29.4] | 99.1%
N#CCc1ccc(-c2cnc(N)c(-c3nc4cccnc4o3)c2)cc1 [Example 9A.16] | 97.7%
Nc1ncc(-c2ccc(N3CCNCC3)nc2)nc1-c1nc2ccccc2o1 [Example 20.3] | 99.3%

Same assay, conditions: test compound at 1 μM; first value quoted; read-out: % Axl tyrosine kinase inhibition at 1 μM concentration

SMILES | inhibition at 1 µM
CN(C)CC(=O)N1CCC(n2cc(-c3cnc(N)c(-c4nc5ncccc5o4)c3)cn2)CC1 [Example 58, 1-[4-[4-(6-amino-5-oxazolo[4,5-b]pyridin-2-yl-3-pyridyl)pyrazol-1-yl]-1-piperidyl]-2-dimethylamino-ethanone] | 99.5%
CN1CCC(n2cc(-c3cnc(N)c(-c4nc5cccc(C#N)c5o4)c3)cn2)CC1 [Example 64, 2-[2-amino-5-[1-(1-methyl-4-piperidyl)pyrazol-4-yl]-3-pyridyl]-1,3-benzoxazole-7-carbonitrile] | 99.1%
Cc1c(-c2cnc(N)c(-c3nc4ccccc4o3)c2)cnn1C1CCNCC1 [Example 24, 3-(1,3-benzoxazol-2-yl)-5-[5-methyl-1-(4-piperidyl)pyrazol-4-yl]pyridin-2-amine] | 100%
CN(C)CCNC(=O)c1ccc(-c2cnc(N)c(-c3nc4cccnc4o3)c2)cc1 [Example 44, 4-(6-amino-5-(oxazolo[5,4-b]pyridin-2-yl)pyridin-3-yl)-N-(2-(dimethylamino)ethyl)benzamide] | 99.6%
Nc1ncc(-c2cnn(C3CCNCC3)c2)cc1-c1nc2ncc(F)cc2o1 [Example 37, 3-(6-fluorooxazolo[4,5-b]pyridin-2-yl)-5-[1-(4-piperidyl)pyrazol-4-yl]pyridin-2-amine] | 98.4%
Cc1cccc2nc(-c3cc(-c4cnn(C5CCN(C)CC5)c4)cnc3N)oc12 [Example 36, 3-(7-methyl-1,3-benzoxazol-2-yl)-5-[1-(1-methyl-4-piperidyl)pyrazol-4-yl]pyridin-2-amine] | 100%
Nc1ncc(-c2cccc(N3CCNCC3)c2)cc1-c1nc2ccccc2o1 [Example 2.10, 3-(1,3-Benzoxazol-2-yl)-5-(3-piperazin-1-ylphenyl)pyridin-2-amine] | 99.5%
